Data on 51 molecules can be found in patent US20260365696A1, “INHIBITORS OF PTP1B / NCK1 INTERACTION AND METHODS OF MAKING AND USING SAME” (Radella Pharmaceuticals LLC, priority 2023, published 2026).

Like-named read-outs stand apart in the source and are kept apart here. Residues, ends and D or L forms follow the SMILES beside them.

One experiment concerns the target T1, SH3-2 domain of NCK1 (Homo sapiens, UniProt P16333).
T1 construct: To amplify the NCK1 SH3-2 domain, the primers; 10xHis tag with TEV site (vector pSF-OXB20-NH2-10HIS) (N, cleaved yes); made in house; host or cells: E. coli C43(DE3)
In words: Isothermal titration calorimetry (ITC) binding to NCK1 SH3-2 domain. As to conditions: ITC; for Kd: 25 °C, pH 8.0. From the text: Human PTP1B cDNA (NM_002827) and human NCK1 cDNA (NM 006153) were obtained (Origene, MD, USA). PTP1B Primers were designed to amplify the ORFs with added homology to the cut vector (EcoRI-digested pSF-OXB20-NH2-10HIS) in the forward primer sequence. To amplify full-length PTP1B, the primers ptp1b_FL_fwd ([…]) (SEQ ID NO: 159) and ptp1b_FL_rev ([…]) (SEQ ID NO: 160) were used. To amplify truncations of PTP1B, the following primer pairs were used: ptp1b_FL-Fwd and one of Ptplb_323stop_rev (gtgcaggaggagttcgaatt[…]) (SEQ ID NO: 161), ptp1b_344stop_rev ([…]) (SEQ ID NO: 162) or ptp1b_278stop_rev([…]) (SEQ ID NO: 163). To amplify the NCK1 SH3-2 domain, the primers ncklsh32_fwd ([…]) (SEQ ID NO: 164) and ncklsh32_rev ([…]) (SEQ ID NO: 165) were used. The amplified fragments were purified using a DNA clean-up kit according to manufacturer's instructions (QIAquick PCR purification kit, Qiagen).
To produce and purify fusion proteins, a culture was inoculated with 1% of overnight-cultured inoculum. Protein expression was carried out under the conditions described above, scaled up as necessary. Cells expressing the recombinant proteins were harvested in 50 mL tubes by centrifugation and stored at −80 °C. Cells containing the expressed gene product were thawed over ice and resuspended in Extraction buffer (10 mM Tris, pH 7.4 or 10 mM Sodium Phosphate, pH 8.0; 300 mM NaCl, 1 mM DTT or TCEP; 0-10% glycerol and 1 μg lysozyme) and sonicated over ice (4 °C) for 3 min total using pulses of 5 s with 15 s intervals, using a wide probe at 15 amplitude microns (Soniprep 150, MSE). Insoluble material was removed from the lysate by centrifugation at 20K rpm for 20-60 min at 4 °C. Supernatant was filtered through a 0.22 μm PVDF filter membrane and applied to 1-2 5 mL HisTrap FF Crude (Cytiva) prepacked Ni columns and connected to an AKTA explorer. After thorough washing with binding buffer (10 mM Tris, pH 7.4 or 10 mM Sodium Phosphate, pH 8.0; 300 mM NaCl; 1 mM DTT or TCEP and 25 mM Imidazole), protein was eluted using elution buffer (10 mM Tris, pH 7.4 or 10 mM Sodium Phosphate, pH 8.0; 150-300 mM NaCl; 1 mM DTT or TCEP and 250 mM Imidazole). Fractions containing protein of interest were confirmed by SDS PAGE. Protein was diluted with GF buffer (10 mM Tris, pH 7.4 or 10 mM Sodium Phosphate, pH 8.0; 150-300 mM NaCl) and subjected to TEV protease treatment overnight at 4-10 °C. Following proteolytic digestion, HIS-tag and TEV protease were removed by filtration through a clean 5 mL HisTrap FF Crude (Cytiva) prepacked Ni column. Protein was concentrated on a PES ultrafiltration device by centrifugation at 4000 rpm at 4 °C, and protein was polished via a HiPrep S-100 26/60 (Cytiva) using GF buffer (as described above). Purified proteins were concentrated using ultrafiltration, and protein concentration was determined using ultraviolet-visible spectroscopy. The integrity and identity of all proteins were verified by mass spectrographic analysis.
Isothermal titration calorimetry (ITC) was used to determine binding affinities for peptides against the SH3-2 domain of NCK1. Experiments were conducted at 25 °C using either a MicroCal iTC200 or MicroCal PEAQ-ITC calorimeter. The buffer used for all ITC experiments was 10 mM sodium [COMPOUND LEFT OUT] mM sodium chloride (pH=8.0). A series of peptides (concentration 3-7.5 mM) were titrated in to NCK1 SH3-2 domain (concentration 0.125-0.3 mM) using the following conditions: one injection of 0.2 μL followed by 19 injections of 2 μL, 120-150 seconds spacing between injections, at 25 °C. The data were fit using analysis software provided by the manufacturer and affinity values were calculated. The best fitting occurred when the number of sites was between 0.8 and 1.2. The experiments were repeated twice for a total of three times, and the average binding affinity for each peptide was generated. […]

For experiment [1], the target named is T2, NCK1 SH3-2 domain (human).
T2 chain: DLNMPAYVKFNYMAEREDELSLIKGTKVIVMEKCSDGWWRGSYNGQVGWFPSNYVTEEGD
In words: ITC.

Experiment [2] deals with T2, NCK1 SH3-2 domain. In words: ITC.
Where [3] appears, read: substitutions at position 3 of MD18.
Where [4] appears, read: substitutions at position 6 of MD18.
[5] abbreviates: substitutions at position 4 of MD18 in a 7-mer.
[6] abbreviates: N- or C-terminal extensions, 30-mers tested one to three times.
Setting [7] is: Alanine scanning of the MD17 15-mer peptide.
The mark [8] stands for this setting: substitutions at position 1 of MD18.
[9] abbreviates: substitutions at position 8 of the 8-mer MH063, certain peptides tested one to three times.
The mark [10] stands for this setting: Sliding window peptide analysis.

As for Ac-PPPPPKR-NH2 [MH106, Ac-PPPPPKR-NH2], the dissociation constant (Kd) at SH3-2 domain of NCK1 (setting [3]) is not above 300 µM.
At SH3-2 domain of NCK1 (setting [4]), Ac-PPRPPLR-NH2 [MH102, Ac-PPRPPLR-NH2] showed a Kd not above 300 µM.
Consider Ac-PPRYPKR-NH2 [MH121, Ac-PPRYPKR-NH2], for which the Kd on SH3-2 domain of NCK1 (setting [5]) fell in the range of 300 to 600 µM.
At SH3-2 domain of NCK1 (setting [4]), Ac-PPRPPCR-NH2 [MH054, Ac-PPRPPCR-NH2] came in with a Kd not above 300 µM.
In turn, Ac-PPRQPKR-NH2 [MH131, Ac-PPRQPKR-NH2] gave a Kd on SH3-2 domain of NCK1 (setting [5]) of more than 1000 µM.
`CC(=O)N[C@@H](CCCNC(=N)N)C(=O)N1CCC[C@H]1C(=O)N1CCC[C@H]1C(=O)N[C@@H](CCCCN)C(N)=O` [MH016, Ac-RPPK-NH2] (Ac-RPPK-NH2) had a Kd at SH3-2 domain of NCK1 (Peptide truncation analysis) of more than 1000 µM.
Take Ac-PRPPK-NH2 [MH022, Ac-PRPPK-NH2]: the “binding to NCK1 SH3-2 domain (in words)” value on SH3-2 domain of NCK1 is on record as “abolished binding”. The molecule also displayed a Kd on SH3-2 domain of NCK1 (Peptide truncation analysis) of more than 1000 µM.
Ac-PPRPPRR-NH2 [MH048, Ac-PPRPPRR-NH2] showed a dissociation constant (Kd) on SH3-2 domain of NCK1 (setting [4]) not above 300 µM.
For the molecule “Ac-PPPEHIPPPPRPPKRILEPHNGKCREFFPN-NH2 [MH137]”, the Kd on SH3-2 domain of NCK1 (setting [6]) is not above 300 µM.
In turn, Ac-PPPEHIPPPPRPAKR-NH2 [MH005] had a Kd on SH3-2 domain of NCK1 (setting [7]) of more than 1000 µM.
Ac-MPRPPKR-NH2 [MH109, Ac-MPRPPKR-NH2]: the dissociation constant (Kd) at SH3-2 domain of NCK1 (setting [8]) is not above 300 µM.
In turn, Ac-PPRPPER-NH2 [MH051, Ac-PPRPPER-NH2] registered a Kd at SH3-2 domain of NCK1 (setting [4]) not above 300 µM.
Still for that read-out and setting: then Ac-PPRPPTR-NH2 [MH116, Ac-PPRPPTR-NH2], with not above 300 µM.
Ac-WPRPPKR-NH2 [MH117, Ac-WPRPPKR-NH2] came in with a Kd on SH3-2 domain of NCK1 (setting [8]) not above 300 µM.
In the case of Ac-PPRPPKRL-NH2 [MH147], the Kd on SH3-2 domain of NCK1 (setting [9]) was not above 300 µM.
Turning to Ac-PPRPPK-NH2 [MH035, Ac-PPRPPK-NH2], the “binding to NCK1 SH3-2 domain (in words)” value on SH3-2 domain of NCK1 is listed as “abolished binding”. Besides, on SH3-2 domain of NCK1 (setting [10]), the Kd is more than 1000 µM.
With Ac-PPRGPKR-NH2 [MH093, Ac-PPRGPKR-NH2], the Kd at SH3-2 domain of NCK1 (setting [5]) was more than 1000 µM.
Turning to Ac-PPPEHIPPPPRPPKA-NH2 [MH007], the Kd on SH3-2 domain of NCK1 (setting [7]) is more than 1000 µM.
With Ac-PPPEHIPAPPRPPKR-NH2 [MSJ019], the Kd on SH3-2 domain of NCK1 (setting [7]) is not above 300 µM.
Ac-PPEPPKR-NH2 [MH058, Ac-PPEPPKR-NH2]: at SH3-2 domain of NCK1 (setting [3]), the Kd was not above 300 µM.
On the same count and under the same terms, next, Ac-PPQPPKR-NH2 [MH087, Ac-PPQPPKR-NH2]: not above 300 µM.
Consider “Ac-WKELSHEDLEPPPEHIPPPPRPPKR-NH2 [MH135]”, for which the Kd on SH3-2 domain of NCK1 (setting [6]) was not above 300 µM.
In the case of Ac-EPRPPKR-NH2 [MH071, Ac-EPRPPKR-NH2], the Kd on SH3-2 domain of NCK1 (setting [8]) is not above 300 µM.
The molecule Ac-PPPRPP-NH2 [MH036, Ac-PPPRPP-NH2] came in with a Kd on SH3-2 domain of NCK1 (setting [10]) of more than 1000 µM.
Molecule Ac-PPRPPKRP-NH2 [MH151] gave an equilibrium dissociation constant (Kd) on SH3-2 domain of NCK1 (setting [9]) of 300 to 600 µM.
Molecule Ac-NPRPPKR-NH2 [MH069] showed an equilibrium dissociation constant (Kd) in the experiment with NCK1 SH3-2 domain [1] of less than 300 µM.
In turn, Ac-IPPPPRPPKR-NH2 [MH026] returned a Kd with NCK1 SH3-2 domain [2] of less than 300 µM.
As to Ac-HIPPPPRPPKR-NH2 [MH027], in the experiment with NCK1 SH3-2 domain [2], the dissociation constant Kd is less than 300 µM.
For the molecule Ac-KPRPPKR-NH2 [MH103], the dissociation constant (Kd) in the experiment with NCK1 SH3-2 domain [1] was less than 300 µM.
In turn, Ac-PPEHIPPPPRPPKR-NH2 [MH030] had a Kd in the experiment with NCK1 SH3-2 domain [2] of less than 300 µM.
The molecule Ac-GPRPPKR-NH2 [MH091] had a Kd with NCK1 SH3-2 domain [1] of less than 300 µM.
As for Ac-IPRPPKR-NH2 [MH095], in the experiment with NCK1 SH3-2 domain [1], the Kd was less than 300 µM.
With Ac-PRPP-NH2 [MH021], the Kd with NCK1 SH3-2 domain [2] is more than 1000 µM.
The molecule Ac-WPRPPKR-NH2 [MH117] had an equilibrium dissociation constant (Kd) with NCK1 SH3-2 domain [1] of less than 300 µM.
Consider RPP [MH020], for which, in the experiment with NCK1 SH3-2 domain [2], the dissociation constant (Kd) was more than 1000 µM.
Take PPK [MH015]: the Kd in the experiment with NCK1 SH3-2 domain [2] was more than 1000 µM.
Regarding Ac-PEHIPPPPRPPKR-NH2 [MH029], in the experiment with NCK1 SH3-2 domain [2], the Kd was less than 300 µM.
In the case of Ac-YPRPPKR-NH2 [MH119], the Kd with NCK1 SH3-2 domain [1] is less than 300 µM.
Turning to Ac-LPRPPKR-NH2 [MH099], the equilibrium dissociation constant (Kd) with NCK1 SH3-2 domain [1] was less than 600 µM.
Consider Ac-RPPKR-NH2 [MH018], for which the Kd in the experiment with NCK1 SH3-2 domain [2] was more than 1000 µM.
Same read-out and setting: then Ac-PPPPRPPKR-NH2 [MH025], with less than 300 µM; and PRP [MH019], with more than 1000 µM; and Ac-PRPPK-NH2 [MH022], with more than 1000 µM.
Same read-out and setting: then Ac-RPPK-NH2 [MH016], with more than 1000 µM; and PKR [MH014], with more than 1000 µM.
Same read-out and setting: next, Ac-EHIPPPPRPPKR-NH2 [MH028]: less than 300 µM; Ac-PPKR-NH2 [MH017]: more than 1000 µM.
The molecule Ac-HPRPPKR-NH2 [MH072] registered a dissociation constant (Kd) in the experiment with NCK1 SH3-2 domain [1] of less than 300 µM.
Consider Ac-SPRPPKR-NH2 [MH074], for which the Kd with NCK1 SH3-2 domain [1] was less than 300 µM.
Molecule Ac-PPPRPPKR-NH2 [MH024] registered a Kd with NCK1 SH3-2 domain [2] of less than 300 µM.
Regarding Ac-CPRPPKR-NH2 [MH070], the Kd with NCK1 SH3-2 domain [1] was less than 300 µM.
